Values of other authors as cited in patent US20150017236A1, “PHARMACEUTICAL COMPOSITIONS OF THYROID HORMONE” (priority 2013, published 2015).

Details: tablet formulation of levothyroxine sodium; storage

Question: With `N[C@@H](Cc1cc(I)c(Oc2cc(I)c(O)c(I)c2)c(I)c1)C(=O)O` [levothyroxine sodium, sodium (S)-2-amino-3-[4-(4-hydroxy-3,5-diiodphenoxy)-3,5-diiodophenyl]propionate] as the compound, how does the decomposition of levothyroxine read?
Answer: Its decomposition of levothyroxine is “approximately 1 percent per month”.
